{"source": "paper PMC5448288", "about": "(Journal of the American Chemical Society, 2009)", "target": "human indoleamine 2,3-dioxygenase (hIDO) (Homo sapiens, UniProt P14902)", "sequence (P14902 whole entry)": "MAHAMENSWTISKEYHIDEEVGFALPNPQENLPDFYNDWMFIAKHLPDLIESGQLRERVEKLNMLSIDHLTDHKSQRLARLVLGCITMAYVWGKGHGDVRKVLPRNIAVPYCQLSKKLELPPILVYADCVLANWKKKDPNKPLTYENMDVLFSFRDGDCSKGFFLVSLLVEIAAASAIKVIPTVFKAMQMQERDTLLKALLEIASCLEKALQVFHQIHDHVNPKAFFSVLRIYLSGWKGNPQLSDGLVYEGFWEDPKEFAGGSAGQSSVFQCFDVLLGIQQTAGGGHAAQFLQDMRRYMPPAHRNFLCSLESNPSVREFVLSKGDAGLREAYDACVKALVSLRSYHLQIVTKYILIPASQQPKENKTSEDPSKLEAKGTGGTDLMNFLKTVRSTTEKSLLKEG", "assay": "steady-state dioxygenase activity of hIDO", "key": {"[1]": {"details": "compound as substrate, no IDE, pH 7.4, air-saturated, kcat = Vmax/[hIDO]"}, "[2]": {"details": "L-Trp reaction in the presence of 2.5 mM IDE, pH 7.4"}, "[3]": {"details": "L-Trp reaction in the presence of 5.1 mM IDE, pH 7.4"}}, "note": "Values joined by “and” are separate entries in the source; they are usually repeats but may differ in a detail not shown here. Equal values may be shown once.", "data": [{"smiles": "N[C@H](Cc1c[nH]c2ccccc12)C(=O)O", "note": "[D-Trp]", "values": [{"measurement": "substrate inhibition", "setting": "activity as a function of substrate concentration, Figure 1b", "value": "No substrate inhibition was observed"}, {"measurement": "Km", "setting": "compound as substrate", "value": 2600, "unit": "µM"}, {"measurement": "Km, fold larger as compared to the L-Trp reaction", "setting": "compound as substrate", "value": 170, "unit": "fold"}, {"measurement": "kcat, fold faster as compared to the L-Trp reaction", "setting": "compound as substrate", "value": 2, "unit": "fold"}, {"measurement": "Km", "setting": "compound as substrate, no IDE, pH 7.4, air-saturated", "value": 2600, "unit": "µM"}, {"measurement": "kcat", "setting": "[1]", "value": "5.9 s⁻¹ and 5.9 ± 0.3 s⁻¹"}]}, {"smiles": "N[C@@H](Cc1c[nH]c2ccccc12)C(=O)O", "note": "[L-Trp, L-tryptophan]", "values": [{"measurement": "kcat", "setting": "[1]", "value": "3.1 ± 0.2", "unit": "s⁻¹"}, {"measurement": "Ksi (self-inhibition / substrate-inhibition constant)", "setting": "compound as substrate, no IDE, pH 7.4, fit with eq 1", "value": "0.17 mM and 0.17 ± 0.2 mM"}]}, {"smiles": "CO[C@@]12[C@H](COC(N)=O)C3=C(C(=O)C(C)=C(N)C3=O)N1C[C@@H]1N[C@@H]12", "note": "[MtoC, Mitomycin C]", "values": [{"measurement": "mode of inhibition", "setting": "Lineweaver–Burk plot of L-Trp reaction", "value": "uncompetitive"}]}, {"smiles": "OCCc1c[nH]c2ccccc12", "note": "[IDE, 3-Indole Ethanol]", "values": [{"measurement": "Ksi", "setting": "[2]", "value": "0.48 ± 0.05", "unit": "mM"}, {"measurement": "kcat", "setting": "[2]", "value": "3.2 ± 0.4", "unit": "s⁻¹"}, {"measurement": "Ksi", "setting": "[3]", "value": "1.0 ± 0.1", "unit": "mM"}, {"measurement": "kcat", "setting": "[3]", "value": "3.5 ± 0.6", "unit": "s⁻¹"}]}]}
